The values below come from patent US20250205286A1, “COMPOSITIONS, REAGENTS, AND METHODS FOR TREATING PITT-HOPKINS SYNDROME” (Vitro Biopharma, Inc., priority 2022, published 2025).

The assay concerns Hsp70 secretion from UC-MSCs. As to the kind of experiment: Hsp70 secretion from cultured UC-MSCs exposed to LiCl (immunoassay). Format: cell-based, human. Conditions: 200 micromolar LiCl; medium collected 96 hours later; p<0.05. The protocol: FIG. 7 is a graph showing the secretion of heat shock protein 70 (Hsp70) from cultured UC-MSCs (e.g., ALLORX STEM CELLS®) and the effects of increasing concentrations of lithium chloride (LiCl) on Hsp70 secretion.
UC-MSCs were plated at 5,000 cells/cm^2 in T-25 flasks and cultured until confluence was 80-90%. The cells were then exposed to the LiCl concentrations shown on the x axis and the medium was collected 96 hours later and assayed by immunoassay for Hsp70. […] Since Hsp70 mediates cellular protection as a chaperone molecule and through antiapoptotic mechanisms (refs), its enhanced secretion from MSCs (possible through inclusion in exosomes Ref) may reflect mechanisms of stem cell activation by GSK-3p inhibition in conjunction with HDAC inhibition (e.g., see U.S. application Ser. No. 17/239,513 which is incorporated by reference). This effect is a possible mode of action of the therapy proposed by the present disclosure.

Take `[Cl-].[Li+]` [LiCl, lithium chloride]: the “secretion of Hsp70” value is “significant increased secretion”.
